# Data reported in patent US20210395210A1, “INHIBITION OF BACTERIAL CHAPERONIN SYSTEMS” (THE TRUSTEES OF INDIANA UNIVERSITY, priority 2018, published 2021).
# pEC50, pIC50: −log10 of the molar value. Like-named read-outs stand apart in the source and are kept apart here.
# Columns and labels:
# THLE-3 liver cells = experiment: Liver cell viability assay (Alamar Blue); settings: read-out: Human Cell Viability CC50, Liver (THLE-3); THLE-3 liver cells, Alamar Blue, 48 h
# Description: (§1) HEK 293 cells were maintained in MEM medium (Corning Cellgro, 10-009 CV) supplemented with 10% FBS (Sigma, F2242). […] Cells at 80% confluence were harvested and diluted in growth medium, then 45 μL of the THLE-3 cells (1,500 cells/well) or HEK 293 cells (1,500 cells/well) were dispensed per well, and plates were sealed with “Breathe Easy” oxygen permeable membranes (Diversified Biotech) and incubated at 37° C., 5% CO2, for 24 h.
# native Rho (rhodanese) = target: T1, native Rho (rhodanese) (Bos taurus, UniProt P00586); experiment: Counter-screen for inhibition of native rhodanese enzymatic activity; assay type: biochemical; settings: for log(IC50) Native Rho Reporter: log of IC50 (μM scale), with standard deviation
# T1 construct: purchased Roche (so in the source) R1756
# T1 sequence (P00586 1-297): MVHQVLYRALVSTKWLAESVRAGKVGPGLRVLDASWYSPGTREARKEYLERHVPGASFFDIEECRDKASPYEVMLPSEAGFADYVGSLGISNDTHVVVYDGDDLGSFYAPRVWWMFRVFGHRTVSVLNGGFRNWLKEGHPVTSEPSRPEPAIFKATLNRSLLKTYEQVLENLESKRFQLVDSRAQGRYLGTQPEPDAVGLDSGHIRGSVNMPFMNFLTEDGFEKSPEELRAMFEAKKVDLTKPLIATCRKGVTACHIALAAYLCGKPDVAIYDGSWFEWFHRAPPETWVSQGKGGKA
# Description: Reagent Preparations & Assay Protocol: Reagents were identical to those used in the GroEUES-dRho refolding assay described above; however, the assay protocol differed in the sequence of compound addition to the wells. Compounds were pin-transferred after the 60 minute incubation for the refolding cycle, but prior to the addition of the thiocyanate enzymatic assay stock. Thus, the refolding reactions were allowed to proceed for 60 min at 37° C. in the absence of test compounds, but the enzymatic activity of the refolded rhodanese reporter enzyme was monitored in the presence of test compounds (inhibitor concentration range during the enzymatic reporter reaction is 100 µM to 46 nM-3-fold dilutions). IC50 values for the rhodenase reporter enzyme were determined as described above. Results presented represent the averages of IC50 values obtained from at least quadriplicate (duplicate of duplicate) replicates.
# HEK 293 kidney cells = experiment: Kidney cell viability assay (Alamar Blue); settings: read-out: Human Cell Viability CC50, Kidney (HEK 293); HEK 293 kidney cells, Alamar Blue, 48 h
# Description: as §1
# [1] = test system: S. aureus Rosenbach (ATCC 25923) in established biofilms; experiment: S. aureus biofilm penetration and bactericidal activity assay; assay type: cell-based, Staphylococcus aureus; settings: read-out: S. aureus Proliferation & Biofilm Assay EC50 Killing Bacteria in Biofilms
# Description: The biofilm penetration and bactericidal activity assay was carried out with S. aureus Rosenbach (ATCC 25923) as described previously by Kwasny et al. S. aureus bacteria were streaked onto a Tryptic Soy Broth (TSB) agar plate and grown overnight at 37° C. A fresh aliquot of TSB media was inoculated with a single bacterial colony and the cultures were grown overnight at 37° C. with shaking (250 rpm). The overnight culture was then sub-cultured (1:5 dilution) into a fresh aliquot of TSB media supplemented with 0.5% glucose and grown at 37° C. for 1 h with shaking, then diluted into fresh TSB media supplemented with 0.5% glucose to achieve a final OD600 reading of 0.01. Aliquots of the diluted culture (100 μL) were dispensed to 96 well polystyrene plates without any compounds added. A second set of control plates were prepared analogously, but without any bacteria added. Plates were sealed with “Breathe Easy” oxygen permeable membranes (Diversified Biotech) and left to incubate at 37° C. without shaking (stagnant assay) until biofilm was formed. After 24 h, the planktonic cultures (or media blanks in the control plates) were removed and the plates were washed gently 3 times with 200 μL of sterile phosphate buffered saline (PBS). Then, 100 μL aliquots of fresh TSB media were dispensed to the plates along with addition of 1 μL of test compounds in DMSO. The inhibitor concentration range during the assay was 100 μM to 46 nM (3-fold dilution series). The plates were sealed with “Breathe Easy” membranes and incubated at 37° C. without shaking to allow compounds to penetrate and kill bacteria in the biofilms. After 24 h, the cultures were removed and plates were washed again gently 3 times with 200 μL of sterile PBS. The remaining bacteria in the biofilms were allowed to recover by adding 100 μL of fresh TSB media per well and incubating for 24 h at 37° C. At the end of this final incubation, bacterial growth was monitored by measuring the OD600 nm using a Molecular Devices SpectraMax Plus384 microplate reader. […] Results presented represent the averages of EC50 values obtained from at least triplicate experiments.
# Next, we evaluated whether or not compounds would be bactericidal to S. aureus that were within already established biofilms. In this assay, we first grew S. aureus bacteria for 24 h in the absence of test compounds so that they could establish biofilms in the wells. After 24 h, the cultures were removed, the wells were washed gently, and fresh media was added along with test compounds or vancomycin. […] Fresh media was then added and the cultures were incubated for another 24 h to allow any viable bacteria remaining in the biofilms to emerge and grow planktonically again.
# [2] = read-out: Biochemical Assay IC50 Native Rho Reporter
# [3] = Staphylococcus aureus, ATCC25923, 24 h
Compound,CC50 (THLE-3 liver cells) [µM],pIC50 (native Rho (rhodanese)),log(IC50) Native Rho Reporter (native Rho (rhodanese)),CC50 (HEK 293 kidney cells) [µM],"pEC50 ([1]; established 24 h biofilm, 24 h with compound, 24 h recovery, OD600)",pIC50 (native Rho (rhodanese); [2]),"pEC50 [1, 3]",inhibition of native Rho enzymatic activity (in words) (native Rho (rhodanese); false-positive counter-screen),"pEC50 ([1]; Staphylococcus aureus, ATCC25923, established 24 h biofilm, 24 h with compound, 24 h recovery, OD600)"
"O=C(Nc1ccc(Oc2ccc(Cl)cc2)c(Cl)c1)c1cc(I)cc(I)c1O [Rafoxanide, rafoxanide, reference compound]",24,< 4.00,>2,> 100,–,–,–,–,–
"CN[C@H](CC(C)C)C(=O)N[C@H]1C(=O)N[C@@H](CC(N)=O)C(=O)N[C@H]2C(=O)N[C@H]3C(=O)N[C@H](C(=O)N[C@H](C(=O)O)c4cc(O)cc(O)c4-c4cc3ccc4O)[C@H](O)c3ccc(c(Cl)c3)Oc3cc2cc(c3O[C@@H]2O[C@H](CO)[C@@H](O)[C@H](O)[C@H]2O[C@H]2C[C@](C)(N)[C@H](O)[C@H](C)O2)Oc2ccc(cc2Cl)[C@H]1O [Vancomycin, vancomycin, reference compound]",> 100,< 4.00,>2,> 100,< 4.00,–,–,–,–
"O=C(Nc1ccccc1)c1cc(Br)cc(Br)c1O [Compound 13, 3,5-Dibromo-2-hydroxy-N-phenylbenzamide]",25,–,>2,34,–,< 4.00,–,–,–
"O=C(Nc1cccc(Cl)c1)c1cc(Br)cc(Br)c1O [Compound 9, 3,5-Dibromo-N-(3-chlorophenyl)-2-hydroxybenzamide]",9.2,–,>2,18,–,< 4.00,–,–,–
"O=C(Nc1ccc(Sc2nc3ccccc3s2)c(Cl)c1)c1cc(Br)cc(Br)c1O [Compound 1, N-(4-(Benzo[d]thiazol-2-ylthio)-3-chlorophenyl)-3,5-dibromo-2-hydroxybenzamide]",–,–,–,–,–,< 4.00,5.62,–,–
"O=C(Nc1ccccc1)c1ccccc1O [Compound 16, 2-Hydroxy-N-phenylbenzamide]",68,< 4.00,>2,> 100,–,–,–,–,–
"O=C(Nc1ccc(Sc2nc3ccccc3s2)c(Cl)c1)c1cccc(Br)c1O [Compound 2, N-(4-(Benzo[d]thiazol-2-ylthio)-3-chlorophenyl)-3-bromo-2-hydroxybenzamide]",–,–,–,–,–,–,5.25,inactive against the reporter enzymes,–
"O=C(Nc1ccc(Sc2nc3ccccc3s2)cc1)c1cc(Br)cc(Br)c1O [Compound 5, N-(4-(Benzo[d]thiazol-2-ylthio)phenyl)-3,5-dibromo-2-hydroxybenzamide]",–,–,–,–,–,–,5.64,–,–
"CC1(C)S[C@@H]2[C@H](NC(=O)[C@H](N)c3ccccc3)C(=O)N2[C@H]1C(=O)O [Ampicillin, ampicillin, reference compound]",> 100,–,>2,> 100,–,< 4.00,–,–,–
"O=C(Nc1cccc(Cl)c1)c1cc(Br)ccc1O [Compound 11, 5-Bromo-N-(3-chlorophenyl)-2-hydroxybenzamide]",–,–,>2,–,–,< 4.00,5.16,–,–
"O=C(Nc1ccc(Sc2nc3ccccc3s2)cc1)c1ccccc1O [Compound 8, N-(4-(Benzo[d]thiazol-2-ylthio)phenyl)-2-hydroxybenzamide]",–,–,–,–,–,< 4.00,–,–,5.70
